Patent publication US11208400B2, “Substituted 6-(1H-pyrazol-1-yl)pyrimidin-4-amine derivatives and uses thereof” (Bayer Aktiengesellschaft, priority 2016, dated 2021)

target: T1, human Npt2a (Homo sapiens, UniProt Q06495); assay: Npt2a activity cell based assay, membrane potential dye, CHO T-REx hNpt2a cells; conditions: doxycycline-induced, depolarization by sodium phosphate influx, average or median values if tested more than once
T1 construct: expressed in transfected cells
T1 sequence (Q06495 1-639): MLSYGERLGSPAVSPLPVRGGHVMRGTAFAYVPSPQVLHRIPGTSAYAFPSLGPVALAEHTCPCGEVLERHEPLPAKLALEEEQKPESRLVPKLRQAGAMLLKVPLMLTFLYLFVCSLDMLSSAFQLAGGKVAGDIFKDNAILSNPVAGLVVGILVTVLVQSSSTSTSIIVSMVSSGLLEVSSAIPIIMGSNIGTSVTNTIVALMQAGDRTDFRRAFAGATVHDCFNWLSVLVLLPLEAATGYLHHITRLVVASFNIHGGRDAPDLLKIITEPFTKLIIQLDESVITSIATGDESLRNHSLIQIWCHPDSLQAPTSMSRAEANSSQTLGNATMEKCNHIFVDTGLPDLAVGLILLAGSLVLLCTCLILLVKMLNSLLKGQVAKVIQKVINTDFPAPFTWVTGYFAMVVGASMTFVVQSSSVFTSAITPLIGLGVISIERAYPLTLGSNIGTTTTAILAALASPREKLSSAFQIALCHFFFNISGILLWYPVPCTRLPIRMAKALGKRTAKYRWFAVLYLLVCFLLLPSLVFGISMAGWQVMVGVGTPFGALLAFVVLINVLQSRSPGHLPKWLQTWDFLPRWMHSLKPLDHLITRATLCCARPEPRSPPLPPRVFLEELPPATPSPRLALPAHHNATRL
Outline: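 Doxycycline-induced (0.5 μg/mL, 24 h) CHO T-REx cells were loaded with membrane potential dye in sodium-free NHE buffer (pH 7.4) and exposed to compound (50 μM–1 nM, 5 min, room temperature).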

| Structure (SMILES) | IC50 |
| --- | --- |
| CCc1c(-c2ccc(F)cc2)nn(C)c1Nc1cc(-n2nc(C)cc2C(C)(C)O)ncn1 [Example 264, 2-[1-(6-{[4-ethyl-3-(4-fluorophenyl)-1-methyl-1H-pyrazol-5-yl]amino}pyrimidin-4-yl)-3-methyl-1H-pyrazol-5-yl]propan-2-ol] | 0.5 µM |
| COCCn1nc(-c2ccc(F)cc2)c(C)c1Nc1cc(-n2nc(C)c(C(F)(F)F)c2C)ncn1 [Example 524, 6-[3,5-dimethyl-4-(trifluoromethyl)-1H-pyrazol-1-yl]-N-[3-(4-fluorophenyl)-1-(2-methoxyethyl)-4-methyl-1H-pyrazol-5-yl]pyrimidin-4-amine] | 0.008 µM |
| CCOC(=O)c1c(C)nn(-c2cc(Nc3c(C)c(-c4ccc(F)cc4)nn3CC3CC3)ncn2)c1C [Example 152, ethyl 1-(6-{[1-(cyclopropylmethyl)-3-(4-fluorophenyl)-4-methyl-1H-pyrazol-5-yl]amino}pyrimidin-4-yl)-3,5-dimethyl-1H-pyrazole-4-carboxylate] | 0.006 µM |
| Cc1cc(C)n(-c2cc(Nc3c(C)c(-c4ccc(Br)cc4)nn3C)ncn2)n1 [Example 260, N-[3-(4-bromophenyl)-1,4-dimethyl-1H-pyrazol-5-yl]-6-(3,5-dimethyl-1H-pyrazol-1-yl)pyrimidin-4-amine] | 0.14 µM |
| CCc1c(Nc2cc(-n3ncc4c3CCN(C(=O)OC(C)(C)C)C4)ncn2)n[nH]c1-c1ccc(F)cc1 [Example 33, tert-butyl 1-(6-{[4-ethyl-5-(4-fluorophenyl)-1H-pyrazol-3-yl]amino}pyrimidin-4-yl)-1,4,6,7-tetrahydro-5H-pyrazolo[4,3-c]pyridine-5-carboxylate] | 1 µM |
| CCOC(=O)c1c(C)nn(-c2cc(Nc3n[nH]c(-c4ccccc4)c3C)ncn2)c1C [Example 16, ethyl 3,5-dimethyl-1-{6-[(4-methyl-5-phenyl-1H-pyrazol-3-yl)amino]pyrimidin-4-yl}-1H-pyrazole-4-carboxylate] | 0.081 µM |
| COC(C)c1c(C)nn(-c2cc(Nc3c(C)c(-c4ccc(C#N)cc4)nn3C)ncn2)c1C (single isomer, unassigned) [Example 340, 4-{5-[(6-{4-[1-methoxyethyl]-3,5-dimethyl-1H-pyrazol-1-yl}pyrimidin-4-yl)amino]-1,4-dimethyl-1H-pyrazol-3-yl}benzonitrile] | 0.012 µM |
| Cc1nn(-c2cc(Nc3nn(CC4CC4)c(-c4ccc(F)cc4)c3Cl)ncn2)c(C)c1C(C)(C)O [Example 160, 2-[1-(6-{[4-chloro-1-(cyclopropylmethyl)-5-(4-fluorophenyl)-1H-pyrazol-3-yl]amino}pyrimidin-4-yl)-3,5-dimethyl-1H-pyrazol-4-yl]propan-2-ol] | 1.11 µM |
| CCc1c(Nc2cc(-n3nc(C)c(CC4(O)CC4)c3C)ncn2)nn(C)c1-c1ccc(F)cc1 [Example 256, 1-{[1-(6-{[4-ethyl-5-(4-fluorophenyl)-1-methyl-1H-pyrazol-3-yl]amino}pyrimidin-4-yl)-3,5-dimethyl-1H-pyrazol-4-yl]methyl}cyclopropanol] | 0.035 µM |
| COc1c(-c2ccc(F)cc2)nn(CC2CC2)c1Nc1cc(-n2nc(C)c(C(C)O)c2C)ncn1 (racemic) [Example 336, (±)-1-[1-(6-{[1-(cyclopropylmethyl)-3-(4-fluorophenyl)-4-methoxy-1H-pyrazol-5-yl]amino}pyrimidin-4-yl)-3,5-dimethyl-1H-pyrazol-4-yl]ethanol] | 1.65 µM |
| Cc1nn(-c2cc(Nc3c(C)c(-c4ccc(F)cc4)nn3CC3CC3)ncn2)c(C)c1OC(F)F [Example 509, N-[1-(cyclopropylmethyl)-3-(4-fluorophenyl)-4-methyl-1H-pyrazol-5-yl]-6-[4-(difluoromethoxy)-3,5-dimethyl-1H-pyrazol-1-yl]pyrimidin-4-amine] | 0.01 µM |
| CCOC(=O)Cc1c(C)nn(-c2cc(Nc3c(C)c(-c4ccc(F)cc4)nn3CC3CC3)ncn2)c1C [Example 281, ethyl [1-(6-{[1-(cyclopropylmethyl)-3-(4-fluorophenyl)-4-methyl-1H-pyrazol-5-yl]amino}pyrimidin-4-yl)-3,5-dimethyl-1H-pyrazol-4-yl]acetate] | 0.016 µM |
